Laboratory results from ChEMBL document CHEMBL4414672, “Synthesis of certain benzothieno[3,2-d]pyrimidine derivatives as a selective SIRT2 inhibitors” (Eur J Med Chem, 2020).

Experiments:
Format in all cases: functional
CCRF-CEM = assay: Growth inhibition of human CCRF-CEM cells at 10^-5 M incubated for 48 hrs by sulforhodamine B assay; conditions: read-out: GI
K562 = assay: Growth inhibition of human K562 cells at 10^-5 M incubated for 48 hrs by sulforhodamine B assay; conditions: K562, 48 h, read-out: GI
A549 = assay: Growth inhibition of human A549/ATCC cells at 10^-5 M incubated for 48 hrs by sulforhodamine B assay; conditions: A549, 48 h, read-out: GI
EKVX = assay: Growth inhibition of human EKVX cells at 10^-5 M incubated for 48 hrs by sulforhodamine B assay; conditions: read-out: GI
HOP-92 = assay: Growth inhibition of human HOP92 cells at 10^-5 M incubated for 48 hrs by sulforhodamine B assay; conditions: HOP-92, 48 h, read-out: GI
NCI-H23 = assay: Growth inhibition of human NCI-H23 cells at 10^-5 M incubated for 48 hrs by sulforhodamine B assay; conditions: NCI-H23, 48 h, read-out: GI
NCI-H322M = assay: Growth inhibition of human NCI-H322M cells at 10^-5 M incubated for 48 hrs by sulforhodamine B assay; conditions: read-out: GI
NCI-H460 = assay: Growth inhibition of human NCI-H460 cells at 10^-5 M incubated for 48 hrs by sulforhodamine B assay; conditions: NCI-H460, 48 h, read-out: GI
NCI-H522 = assay: Growth inhibition of human NCI-H522 cells at 10^-5 M incubated for 48 hrs by sulforhodamine B assay; conditions: NCI-H522, 48 h, read-out: GI
COLO 205 = assay: Growth inhibition of human COLO205 cells at 10^-5 M incubated for 48 hrs by sulforhodamine B assay; conditions: COLO 205, 48 h, read-out: GI
HCT-116 = assay: Growth inhibition of human HCT116 cells at 10^-5 M incubated for 48 hrs by sulforhodamine B assay; conditions: HCT-116, 48 h, read-out: GI
HCT-15 = assay: Growth inhibition of human HCT15 cells at 10^-5 M incubated for 48 hrs by sulforhodamine B assay; conditions: HCT-15, 48 h, read-out: GI
KM12 = assay: Growth inhibition of human KM12 cells at 10^-5 M incubated for 48 hrs by sulforhodamine B assay; conditions: KM12, 48 h, read-out: GI
SW-620 = assay: Growth inhibition of human SW620 cells at 10^-5 M incubated for 48 hrs by sulforhodamine B assay; conditions: SW-620, 48 h, read-out: GI
SF-268 = assay: Growth inhibition of human SF268 cells at 10^-5 M incubated for 48 hrs by sulforhodamine B assay; conditions: SF-268, 48 h, read-out: GI
SF-295 = assay: Growth inhibition of human SF295 cells at 10^-5 M incubated for 48 hrs by sulforhodamine B assay; conditions: SF-295, 48 h, read-out: GI
SF-539 = assay: Growth inhibition of human SF539 cells at 10^-5 M incubated for 48 hrs by sulforhodamine B assay; conditions: SF-539, 48 h, read-out: GI
SNB-19 = assay: Growth inhibition of human SNB19 cells at 10^-5 M incubated for 48 hrs by sulforhodamine B assay; conditions: SNB-19, 48 h, read-out: GI
SNB-75 = assay: Growth inhibition of human SNB75 cells at 10^-5 M incubated for 48 hrs by sulforhodamine B assay; conditions: SNB-75, 48 h, read-out: GI
U-251 = assay: Growth inhibition of human U251 cells at 10^-5 M incubated for 48 hrs by sulforhodamine B assay; conditions: U-251, 48 h, read-out: GI
LOX IMVI = assay: Growth inhibition of human LOXIMVI cells at 10^-5 M incubated for 48 hrs by sulforhodamine B assay; conditions: read-out: GI
Malme-3M = assay: Growth inhibition of human MALME-3M cells at 10^-5 M incubated for 48 hrs by sulforhodamine B assay; conditions: read-out: GI
M14 = assay: Growth inhibition of human M14 cells at 10^-5 M incubated for 48 hrs by sulforhodamine B assay; conditions: M14, 48 h, read-out: GI
MDA-MB-435 = assay: Growth inhibition of human MDA-MB-435 cells at 10^-5 M incubated for 48 hrs by sulforhodamine B assay; conditions: MDA-MB-435, 48 h, read-out: GI
SK-MEL-2 = assay: Growth inhibition of human SK-MEL-2 cells at 10^-5 M incubated for 48 hrs by sulforhodamine B assay; conditions: SK-MEL-2, 48 h, read-out: GI
SK-MEL-5 = assay: Growth inhibition of human SK-MEL-5 cells at 10^-5 M incubated for 48 hrs by sulforhodamine B assay; conditions: SK-MEL-5, 48 h, read-out: GI
IGROV-1 = assay: Growth inhibition of human IGROV1 cells at 10^-5 M incubated for 48 hrs by sulforhodamine B assay; conditions: IGROV-1, 48 h, read-out: GI
OVCAR-3 = assay: Growth inhibition of human OVCAR3 cells at 10^-5 M incubated for 48 hrs by sulforhodamine B assay; conditions: OVCAR-3, 48 h, read-out: GI
OVCAR-4 = assay: Growth inhibition of human OVCAR4 cells at 10^-5 M incubated for 48 hrs by sulforhodamine B assay; conditions: OVCAR-4, 48 h, read-out: GI
OVCAR-8 = assay: Growth inhibition of human OVCAR8 cells at 10^-5 M incubated for 48 hrs by sulforhodamine B assay; conditions: OVCAR-8, 48 h, read-out: GI
NCI/ADR-RES = assay: Growth inhibition of human NCI/ADR-RES cells at 10^-5 M incubated for 48 hrs by sulforhodamine B assay; conditions: read-out: GI
SK-OV-3 = assay: Growth inhibition of human SKOV3 cells at 10^-5 M incubated for 48 hrs by sulforhodamine B assay; conditions: SK-OV-3, 48 h, read-out: GI
A498 = assay: Growth inhibition of human A498 cells at 10^-5 M incubated for 48 hrs by sulforhodamine B assay; conditions: A498, 48 h, read-out: GI
ACHN = assay: Growth inhibition of human ACHN cells at 10^-5 M incubated for 48 hrs by sulforhodamine B assay; conditions: read-out: GI
SN12C = assay: Growth inhibition of human SN12C cells at 10^-5 M incubated for 48 hrs by sulforhodamine B assay; conditions: read-out: GI
TK-10 = assay: Growth inhibition of human TK10 cells at 10^-5 M incubated for 48 hrs by sulforhodamine B assay; conditions: TK-10, 48 h, read-out: GI
PC-3 = assay: Growth inhibition of human PC3 cells at 10^-5 M incubated for 48 hrs by sulforhodamine B assay; conditions: PC-3, 48 h, read-out: GI
Hs-578T = assay: Growth inhibition of human Hs 578T cells at 10^-5 M incubated for 48 hrs by sulforhodamine B assay; conditions: read-out: GI
T47D = assay: Growth inhibition of human T47D cells at 10^-5 M incubated for 48 hrs by sulforhodamine B assay; conditions: read-out: GI

Row | SMILES | inhibition of growth at 10 µM (CCRF-CEM) | inhibition of growth at 10 µM (K562) | inhibition of growth at 10 µM (A549) | inhibition of growth at 10 µM (EKVX) | inhibition of growth at 10 µM (HOP-92) | inhibition of growth at 10 µM (NCI-H23) | inhibition of growth at 10 µM (NCI-H322M) | inhibition of growth at 10 µM (NCI-H460) | inhibition of growth at 10 µM (NCI-H522) | inhibition of growth at 10 µM (COLO 205) | inhibition of growth at 10 µM (HCT-116) | inhibition of growth at 10 µM (HCT-15) | inhibition of growth at 10 µM (KM12) | inhibition of growth at 10 µM (SW-620) | inhibition of growth at 10 µM (SF-268) | inhibition of growth at 10 µM (SF-295) | inhibition of growth at 10 µM (SF-539) | inhibition of growth at 10 µM (SNB-19) | inhibition of growth at 10 µM (SNB-75) | inhibition of growth at 10 µM (U-251) | also measured
1 | N=C1Nc2c(sc3ccc(Cl)cc23)C(c2cccc(Br)c2)N1 (stereo not drawn) | -20.7% | 13.7% | 1.98% | 14.5% | 3.3% | 13.7% | 10.3% | 1.37% | 12.2% | -0.42% | 3.22% | -3.08% | 6.3% | -3.61% | 6.03% | -3.08% | -8.29% | 2.72% | 14.4% | -3.32% | inhibition of growth at 10 µM (LOX IMVI): 1.33%; inhibition of growth at 10 µM (Malme-3M): 4.36%; inhibition of growth at 10 µM (M14): 1.65%; inhibition of growth at 10 µM (MDA-MB-435): 1.88%; inhibition of growth at 10 µM (SK-MEL-2): -8.11%; inhibition of growth at 10 µM (SK-MEL-5): 3.53%; inhibition of growth at 10 µM (IGROV-1): 13%; inhibition of growth at 10 µM (OVCAR-3): 0.84%; inhibition of growth at 10 µM (OVCAR-4): 6.46%; inhibition of growth at 10 µM (OVCAR-8): -2.43%; inhibition of growth at 10 µM (NCI/ADR-RES): 2.51%; inhibition of growth at 10 µM (SK-OV-3): 7.9%; inhibition of growth at 10 µM (A498): -4.39%; inhibition of growth at 10 µM (ACHN): 7.06%; inhibition of growth at 10 µM (SN12C): 6.52%; inhibition of growth at 10 µM (TK-10): -23.2%; inhibition of growth at 10 µM (PC-3): 10.2%; inhibition of growth at 10 µM (Hs-578T): -4.14%; inhibition of growth at 10 µM (T47D): 11.3%
2 | O=C1/C(=C\c2ccccc2O)Sc2ccc(Cl)cc21 | -1.92% | 4.83% | -0.44% | 13.3% | 3% | 11.7% | 10.4% | -8.83% | 5.61% | -5.97% | 10% | -7.07% | -0.47% | -11.4% | 5.86% | -6.81% | -6.81% | -7.92% | 22.3% | -8.52% | inhibition of growth at 10 µM (LOX IMVI): 9.63%; inhibition of growth at 10 µM (Malme-3M): 4.11%; inhibition of growth at 10 µM (M14): 0.22%; inhibition of growth at 10 µM (MDA-MB-435): -5.13%; inhibition of growth at 10 µM (SK-MEL-2): 1.25%; inhibition of growth at 10 µM (SK-MEL-5): 4.61%; inhibition of growth at 10 µM (IGROV-1): 0.45%; inhibition of growth at 10 µM (OVCAR-3): -11.6%; inhibition of growth at 10 µM (OVCAR-4): 1.63%; inhibition of growth at 10 µM (OVCAR-8): 1.53%; inhibition of growth at 10 µM (NCI/ADR-RES): 6.5%; inhibition of growth at 10 µM (SK-OV-3): 5.06%; inhibition of growth at 10 µM (A498): 3.49%; inhibition of growth at 10 µM (ACHN): 2.5%; inhibition of growth at 10 µM (SN12C): 5.15%; inhibition of growth at 10 µM (TK-10): -16%; inhibition of growth at 10 µM (PC-3): 1.43%; inhibition of growth at 10 µM (Hs-578T): 3.91%; inhibition of growth at 10 µM (T47D): 22.2%
